The text below walks through data of patent publication JPH01254654A, “スルホン酸の誘導体及びその塩” (Dainippon Pharmaceutical Co Ltd, priority 1988, dated 1989).

The conditions of assay [1]: intracerebroventricular or parenteral administration; cited from earlier work.
A short description of assay [2]: Analgesic action on oral administration (mean writhing number; method of JP 62-270555). The format is in vivo. To be noted: 200mg/kg.

For the compound `O=C(O)CNC(=O)C(CS)Cc1ccccc1` (racemic) [チオルファン, ((It、L)−2−メルカプトメチル−3−フェニルプロピオニル〕グリシン], the analgesic action result in assay [1] is on record as “鎮痛作用を有する”. Turning to `CC(=O)SCC(CC1CN(Cc2ccccc2)CCO1)C(=O)Nc1ccc(S(=O)(=O)[O-])cc1.[Na+]` (centres unmarked) [実施例1], the “inhibition rate (analgesic action; (A-B) x 100/A, A: mean writhing number of control group, B: that of test substance group)” value in assay [2] is reported as 61.6 χ.
